Source: EP0308983A2, “NMR imaging with Mn(II) coordination compositions” (priority 1987, dated 1989)
Values joined by “and” are separate entries in the source; they are usually repeats but may differ in a detail not shown here. Equal entries are not always repeated. Where two headings read alike, the source gives them in different places.

How the values were obtained:
[1] = test system: test population of animals; conditions: for LD₅₀: Table A, species and unit not given; for Safety Factor: in vivo
[2] = Dose needed to lower blood or plasma T₁ to 200 msec at 0.15 T
[3] = Plasma clearance: plasma T₁ and T₂ times after injection; type: in vivo; conditions: rabbit, 0.1 mmole/kg; for plasma T₁ / plasma T₂: 0.15 T
Protocol: A dose of 0.1 mmole/kg of GdDTPA was injected into a rabbit and blood samples were drawn at 10 min intervals for 50 min. The blood was centrifuged, and the plasma T₁ and T₂ times were measured at 0.15 T with a RADX PROTON SPIN ANALYZER (Houston, TX).

[4] = Paramagnetic relaxation properties in water at 10 MHz (0.15T), RADX spin analyzer; type: physicochemical; conditions: 10 MHz (0.15T); for spin-lattice (T₁) relaxation value / spin-spin (T₂) relaxation value: 37°C, triplicate, mean +/- SD; for millimolar relaxivity for T₁ / millimolar relaxivity for T₂: in water; for millimolar relaxivity for T₁: calculated from T₁ and concentration; for millimolar relaxivity for T₂: calculated from T₂ and concentration
Protocol: The paramagnetic relaxation properties of [manganese(II)·(H₂O)₂·(L-alanine)₂]⁺²(Cl₂)⁻² in water were measured at 10 MHz (0.15T) with a spin analyzer (RADX; Houston, TX) at 37°C. After thermal equilibrium, the spin-lattice (T₁) and spin-spin (T₂) relaxation values were measured in triplicate.
The paramagnetic relaxation of the title compound in water was measured at 10 MHz (0.15T) with a spin analyzer (RADX; Houston, TX). After thermal equilibrium, the spin-lattice (T₁) and spin-spin (T₂) relaxation values were measured.
Relaxivity was measured at 10 MHz (0.15T) as described in Example 10.
The relaxivity of the title compound was performed at 0.15 T (10 MHz) with a RADX Spin Analyzer (Houston, TX) at 37°C.

[5] = Protocol: Three buffers were tested for suitability.
One part of the solution of the title compound, synthesized according to Example 35, was added to one part of a US National Bureau of Standard buffer solution for pH 4.0 (American Scientific Products; Phthalate reference buffer).

[6] = Paramagnetic relaxation properties in human plasma at 37°C; type: physicochemical; conditions: for T₂ value / T₁ value / R₁ / R₂ / T₁ changed by (repeat measurement) / T₂ changed by (repeat measurement): 37°C; for T₁ value: triplicate; for T₁ changed by (repeat measurement) / T₂ changed by (repeat measurement): repeat measurement 80 minutes later; for T₂ relaxivity in plasma, fold greater than GdDTPA: versus GdDTPA; for T₁ relaxivity in plasma, fold greater than GdDTPA: versus gadolinium diethylenetriaminepentaacetic acid chelate (GdDTPA)
[7] = one part + one part carbonate pH reference buffer pH 10.0, the pH was 10.45
[8] = one part + one part phosphate pH reference buffer pH 7.0, the pH was 7.63
[9] = one part solution + one part phthalate reference buffer pH 4.0, the pH was 4.69
[10] = dose needed to lower T₁ from 1500 to 200 msec at 0.15 T, unit not given

Compound: CC(=O)[O-].CC(=O)[O-].NCC(=O)O.NCC(=O)O.[Mn+2] [Mn(acetate)₂-bis-glycine]
- LD₅₀ [1]: 0.7
- Safety Factor [1]: 70
- Plasma Dose, T₁ = 200 [2]: 0.10

Compound: O=C([O-])CN(CCN(CC(=O)[O-])CC(=O)O)CCN(CC(=O)[O-])CC(=O)O.[Gd+3] [GdDTPA, gadolinium diethylenetriaminepentaacetic acid chelate, reference compound]
- time for which the plasma T₁ was maintained below 300 [3]: 10 min
- plasma T₁ ([3]; 0 min (baseline)): 1380 ms
- plasma T₂ ([3]; 0 min (baseline)): 588 ms
- plasma T₁ ([3]; 10 min): 259 ms and 269 ms
- plasma T₂ ([3]; 10 min): 245 ms
- plasma T₁ ([3]; 20 min): 349 ms
- plasma T₂ ([3]; 20 min): 287 ms
- plasma T₁ ([3]; 30 min): 348 ms
- plasma T₂ ([3]; 30 min): 283 ms
- plasma T₁ ([3]; 40 min): 352 ms
- plasma T₂ ([3]; 40 min): 270 ms
- plasma T₁ ([3]; 50 min): 340 ms
- plasma T₂ ([3]; 50 min): 298 ms

Compound: CC(=O)[O-].CC(=O)[O-].NCC(=O)O.NCC(=O)O.O.O.[Mn+2] [[Manganese(II)·(H₂O)₂·(Glycine)₂]Diacetate]
- Relaxivity (mM⁻¹sec⁻¹) Spin-Lattice ([4]; 1 mM solution in water): 8.40 mM⁻¹ s⁻¹
- Relaxivity (mM⁻¹sec⁻¹) Spin-Spin ([4]; 1 mM solution in water): 34.5 mM⁻¹ s⁻¹
- appearance of the solution [5, 7]: remained clear
- change of relaxivity over a 12 hour time period [5, 7]: the relaxivity did not change
- appearance of the solution [5, 8]: remained clear
- change of relaxivity over a 12 hour time period [5, 8]: the relaxivity did not change
- appearance of the solution [5, 9]: remained clear
- change of relaxivity over a 12 hour time period [5, 9]: the relaxivity did not change

Compound: Manganese chloride [MnCl₂]
- Plasma Dose, T₁ = 200 [2, 10]: 0.01

Compound: MnEDTA [reference compound]
- LD₅₀ [1]: 5.0
- Safety Factor [1]: 38
- Plasma Dose, T₁ = 200 [2, 10]: 0.13

Compound: C[C@H](N)C(=O)O.C[C@H](N)C(=O)O.O.O.[Cl-].[Cl-].[Mn+2] [[Manganese(II)·(H₂O)₂·(L-alanine)₂]⁺²(Cl₂)⁻²]
- spin-lattice (T₁) relaxation value ([4]; 0.99 mM solution in water): 104 ± 9 ms
- spin-spin (T₂) relaxation value ([4]; 0.99 mM solution in water): 26 ± 1 ms
- millimolar relaxivity for T₁ [4]: 9.81 mM⁻¹ s⁻¹
- millimolar relaxivity for T₂ [4]: 39.3 mM⁻¹ s⁻¹
- T₂ value ([6]; 94 µM final concentration): 187 ± 3 ms
- T₁ value ([6]; 94 µM final concentration): 238 ± 11 ms
- R₁ [6]: 44.7 mM⁻¹ s⁻¹
- R₂ [6]: 56.9 mM⁻¹ s⁻¹
- T₁ changed by (repeat measurement) [6]: 3%
- T₂ changed by (repeat measurement) [6]: 1%
- T₂ relaxivity in plasma, fold greater than GdDTPA [6]: 11.9 fold
- T₁ relaxivity in plasma, fold greater than GdDTPA [6]: 9.3 fold

Compound: CC(C)[C@H](N)C(=O)O.CC(C)[C@H](N)C(=O)O.O.O.[Cl-].[Cl-].[Mn+2] [Manganese(II)·(H₂O)₂·(L-valine)₂]⁺²(Cl₂)⁻²]
- spin-lattice (T₁) relaxation value ([4]; 0.97 mM solution in water): 113 ± 10 ms
- spin-spin (T₂) relaxation value ([4]; 0.97 mM solution in water): 26 ± 1 ms
- millimolar relaxivity for T₁ [4]: 9.12 mM⁻¹ s⁻¹
- millimolar relaxivity for T₂ [4]: 39.7 mM⁻¹ s⁻¹
- T₂ value ([6]; 92 µM final concentration): 191 ± 8 ms
- T₁ value ([6]; 92 µM final concentration): 250 ± 2 ms
- R₁ [6]: 43.5 mM⁻¹ s⁻¹
- R₂ [6]: 56.9 mM⁻¹ s⁻¹
- T₁ changed by (repeat measurement) [6]: 4%
- T₂ changed by (repeat measurement) [6]: 4%
- T₂ relaxivity in plasma, fold greater than GdDTPA [6]: 11.9 fold
- T₁ relaxivity in plasma, fold greater than GdDTPA [6]: 9.1 fold

Compound: N=C(N)NCCC[C@H](N)C(=O)O.N=C(N)NCCC[C@H](N)C(=O)O.O.O.[Cl-].[Cl-].[Mn+2] [[Manganese(II)·(H₂O)₂·(L-arginine)₂]⁺²(Cl₂)⁻²]
- spin-lattice (T₁) relaxation value ([4]; 0.97 mM solution in water): 348 ± 7 ms
- spin-spin (T₂) relaxation value ([4]; 0.97 mM solution in water): 97 ± 4 ms
- millimolar relaxivity for T₁ [4]: 2.96 mM⁻¹ s⁻¹
- millimolar relaxivity for T₂ [4]: 10.6 mM⁻¹ s⁻¹
- T₂ value ([6]; 92 µM final concentration): 287 ± 11 ms
- T₁ value ([6]; 92 µM final concentration): 439 ± 27 ms
- R₁ [6]: 24.8 mM⁻¹ s⁻¹
- R₂ [6]: 37.9 mM⁻¹ s⁻¹
- T₁ changed by (repeat measurement) [6]: 8%
- T₂ changed by (repeat measurement) [6]: 22%
- T₂ relaxivity in plasma, fold greater than GdDTPA [6]: 7.9 fold
- T₁ relaxivity in plasma, fold greater than GdDTPA [6]: 5.2 fold

Compound: N[C@@H](Cc1c[nH]cn1)C(=O)O.N[C@@H](Cc1c[nH]cn1)C(=O)O.O.O.[Cl-].[Cl-].[Mn+2] [[Manganese(II)·(H₂O)₂·(L-histidine)₂]⁺²(Cl₂)⁻²]
- spin-lattice (T₁) relaxation value ([4]; 0.97 mM solution in water): 112 ± 4 ms
- spin-spin (T₂) relaxation value ([4]; 0.97 mM solution in water): 29 ± 1 ms
- millimolar relaxivity for T₁ [4]: 9.20 mM⁻¹ s⁻¹
- millimolar relaxivity for T₂ [4]: 35.6 mM⁻¹ s⁻¹
- T₂ value ([6]; 92 µM final concentration): 186 ± 3 ms
- T₁ value ([6]; 92 µM final concentration): 235 ± 2 ms
- R₁ [6]: 46.3 mM⁻¹ s⁻¹
- R₂ [6]: 58.4 mM⁻¹ s⁻¹
- T₁ changed by (repeat measurement) [6]: 12%
- T₂ changed by (repeat measurement) [6]: 1%
- T₂ relaxivity in plasma, fold greater than GdDTPA [6]: 12.2 fold
- T₁ relaxivity in plasma, fold greater than GdDTPA [6]: 9.7 fold

Compound: C[NH2+]CC(=O)[O-].C[NH2+]CC(=O)[O-].O.O.[Cl-].[Cl-].[Mn+2] [Manganese(II)·(H₂O)₂·(L-sarcosine)₂]⁺²(Cl₂)⁻²]
- spin-lattice (T₁) relaxation value ([4]; 0.98 mM solution in water): 111 ± 2 ms
- spin-spin (T₂) relaxation value ([4]; 0.98 mM solution in water): 26 ± 1 ms
- millimolar relaxivity for T₁ [4]: 9.19 mM⁻¹ s⁻¹
- millimolar relaxivity for T₂ [4]: 39.3 mM⁻¹ s⁻¹
- T₂ value ([6]; 93 µM final concentration): 194 ± 16 ms
- T₁ value ([6]; 93 µM final concentration): 232 ± 2 ms
- R₁ [6]: 46.4 mM⁻¹ s⁻¹
- R₂ [6]: 55.4 mM⁻¹ s⁻¹
- T₁ changed by (repeat measurement) [6]: 6%
- T₂ changed by (repeat measurement) [6]: 4%
- T₂ relaxivity in plasma, fold greater than GdDTPA [6]: 11.5 fold
- T₁ relaxivity in plasma, fold greater than GdDTPA [6]: 9.7 fold

Compound: NC(=O)C[C@H]([NH3+])C(=O)[O-].NC(=O)C[C@H]([NH3+])C(=O)[O-].O.O.[Cl-].[Cl-].[Mn+2] [Manganese(II)·(H₂O)₂·(L-asparginine)₂]⁺²(Cl₂)⁻²]
- spin-lattice (T₁) relaxation value ([4]; 0.94 mM solution in water): 117 ± 5 ms
- spin-spin (T₂) relaxation value ([4]; 0.94 mM solution in water): 29 ± 1 ms
- millimolar relaxivity for T₁ [4]: 9.09 mM⁻¹ s⁻¹
- millimolar relaxivity for T₂ [4]: 36.7 mM⁻¹ s⁻¹
- T₂ value ([6]; 90 µM final concentration): 190 ± 3 ms
- T₁ value ([6]; 90 µM final concentration): 244 ± 20 ms
- R₁ [6]: 45.5 mM⁻¹ s⁻¹
- R₂ [6]: 58.5 mM⁻¹ s⁻¹
- T₁ changed by (repeat measurement) [6]: 7%
- T₂ changed by (repeat measurement) [6]: 2%
- T₂ relaxivity in plasma, fold greater than GdDTPA [6]: 12.2 fold
- T₁ relaxivity in plasma, fold greater than GdDTPA [6]: 9.5 fold
